Columns and labels:
T47D cells = assay: Cell viability, T47D cells with doxycycline-inducible PSMD2 shRNA (KD) vs control; type: cell-based, human
FDX2 = target: T1, FDX2 (Homo sapiens, UniProt Q6P4F2); assay: In vitro Fe-S cluster assembly assay with reduced FDX2; type: biochemical; conditions: reduced FDX2 substituted for reduced FDX1
T1 construct: made in house
From the text: Fe—S clusters are generated from sulfur extracted from cysteine by the iron sulfur-cluster (ISC) core complex (NFS1-ISD11-Acp-ISCU)2 and iron. A reductant (FDX1 or FDX2) is required for Fc-S cluster biosynthesis (Lill and Muhlenhoff, 2006; Py and Barras, 2010) (FIG. 53A). To investigate the effect of elesclomol on mitochondrial Fe—S cluster biosynthesis, we utilized in vitro Fe—S cluster assembly assays. […] As further confirmation, we examined the effect of elesclomol on electron transfer from reduced FDX1 to the ISC core complex upon the addition of cysteine.
Protein Expression and Purification—Unlabeled samples of ISCU, unlabeled (NFS1-ISD11-Acp)2 (abbreviated as SDA), unlabeled and [U-^15N]-FDX1 (truncated first 61 amino acids) and unlabeled FDX2 were produced and purified as described previously (Cai et al., 2013; Cai et al., 2017a; Cai et al., 20176). FDX1 and FDX2 were reduced by adding a 10-fold excess of sodium dithionite to oxidized FDX1 or FDX2 in an anaerobic chamber (Coy Laboratory). The reduction of FDX1 or FDX2 was monitored by the color change from dark brown to light pink and by recording IN/vis spectra before and after reduction. […]
In vitro Fe—S cluster assembly assay—The in vitro Fe—S cluster assembly assays were carried out as follows. […] The growth of absorbance at 456 nm was used to monitor the assembly of [2Fe-2S] clusters.

T1 sequence (Q6P4F2 53-183): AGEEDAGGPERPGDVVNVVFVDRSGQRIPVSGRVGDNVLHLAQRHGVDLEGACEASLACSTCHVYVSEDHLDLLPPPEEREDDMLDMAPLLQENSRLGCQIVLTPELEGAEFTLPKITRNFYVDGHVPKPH

For `CC(C)C[C@H](NC(=O)[C@H](Cc1ccccc1)NC(=O)c1cnccn1)B(O)O` [bortezomib], the “resistance of cells harboring PSMD2 shRNA vs parental line (EC50)” value (T47D cells; T47D, transient PSMD2 reduction) was “EC50 values increased considerably” and the “resistance after transient reduction of PSMD2” value (T47D cells; doxycycline-regulated PSMD2 shRNA) was “significantly increased resistance”.
`CN(NC(=O)CC(=O)NN(C)C(=S)c1ccccc1)C(=S)c1ccccc1` [elesclomol] was tested, and the “inhibition of in vitro Fe-S cluster assembly” value (FDX2) was “almost complete loss of inhibition”.
